Assay results reported in patent US20110130460A1, “INCREASED CREATINE RETENTION WITH SOLUBLE FIBRES” (priority 2007, published 2011).

Experiments:
[1] = Plasma creatine kinetics after a single 2 g creatine dose (one-open compartmental model); type: in vivo, human
Method: (§1) The health status questionnaire was filled in again.
(§2) Venous blood was collected on heparin as an anticoagulant. The tubes were placed immediately on ice and centrifuged at 3000 g for 6 min at 4° C. Plasma (900 μL) was deproteinized with sulfosalicylic acid 5% (300 μL) and centrifuged again at 3000 g for 6min. NaOH 0.1M (90 μL) was added to supernatant (300 μL) to obtain a pH value of about 7.8. Samples were stored at −20° C.
(§3) An aliquot (10 mL) was stored at −20° C. […] An aliquot was stored at −80° C.
Using a Marquardt algorithm, all kinetics were fitted with the following equation:
C(FD/V*(ka/(ka−kel))*(exp(−kel*(t−tlag))−exp(−ka*(t−tlag)))) (equation 1)
where C is the plasma creatine concentration minus the basal concentration (μM) • if C 0, then data were removed • F is the bioavailability • D is the dose (2 g or 15 300 μmol) • is the volume of distribution • ka is the velocity constant of absorption (first order, h^−1) • kel is the velocity constant of elimination (first order, h^−1) • t is the time (h) • tlag is the lag-time (h)
This equation corresponds to a one-open compartmental model in which ka, kel and tlag are the primary parameters. Knowing their value, new kinetic parameters of plasma creatine were calculated:
AUCO,∞:the area under the curve integrated from zero to infinity
Since the bioavailability (F) may not be measured, only the apparent volume of distribution and the apparent clearance can be estimated:
Vd: the apparent volume of distribution (Vd=V/F, L)
C: the apparent clearance (Cl=Kel·Vd, L.h^−1)

[2] = Questionnaire on side effects after creatine supplementation; type: in vivo, human; conditions: after each period of one week creatine supplementation vs initial visit
Text: as §1

[3] = Creatine and creatinine in 24 h feces by HPLC; type: in vivo, human; conditions: basal or supplemented, could not be quantified
Method: as §1, §3
Both creatine and creatinine content in feces was analyzed by HPLC at 205 nm. After dilution of a feces aliquot in 0.045M ammonium sulfate containing an internal standard (4-[2-aminoethyl]-benzene sulfonamide), the sample was filtered on a 10 kDa membrane. The following conditions were used to identify creatine: 2 Beckman RP-C18 Ultrasphere ODS columns 5μ 25 cm*4.6 mm; elution: A/B (70/30) with 0.05% anhydrous trifluoroacetic acid (TFA) at 1.0 mL/min; A: 0.1% H3PO4 in deionised H2O; B: 1.4 mg sodium dodecylsulfate/mL acetonitril. […] The values reported for creatine in the results section correspond to highest possible estimates including a probable overestimation.

[4] = Plasma and erythrocyte creatine and creatinine after one week creatine supplementation (3×2 g per day); type: in vivo, human
Method: as §1, §2
After the first centrifugation, erythrocytes were washed twice with a similar volume of physiological water (0.9% NaCl, centrifugation: 1000 g, 5 min, 4° C.). After three frozen and defrozen procedures, erythrocytes (300 μL) were deproteinized with sulfosalicylic acid 5% (600 μL) and then centrifuged at 3000 g during 6 min. Supernatant was collected and centrifuged again. The clear supernatant was neutralized with NaOH 0.1M.
as §3

[5] = Urinary creatine and creatinine excretion after a single 2 g creatine dose; conditions: whatever the form, excretion slightly less than 1 g/24 h
Method: as §1
An aliquot (10 mL) was stored at −20° C.

[6] = 21 g/d creatine for 2 weeks; levels within the normal range; cited from earlier work

For CN(CC(=O)O)C(=N)N [creatine], the “apparent volume of distribution relative to body mass” value ([1]; after ingestion of 2 g creatine, not influenced by the form ingested) was “about 75 % of body mass”, the “change of plasma creatinine concentration after single dose” value ([1]; eight hours following ingestion of 2 g creatine, independent of treatment, basal 53.5±1.50 μM) was “changed by only a few μM” and the half-life ([1]; human, plasma, oral, after ingestion of 2 g creatine, mean over the forms, read-out: mean half-life of elimination (converted)) was 1.09 ± 0.06 h. The “frequency of declared health troubles (side effects)” value [2] was “No difference was observed in the frequency of declared health troubles except for muscle cramps which were less frequently reported”, the “maximal estimated value of creatine in feces” value [3] was no more than 50±5.7 μg per gram fresh feces and the “erythrocyte creatinine concentration during the experiment” value ([4]; basal about 25 μM) was “remained stable”. For the same molecule, the “plasma creatine concentration after supplementation, fold higher” value ([4]; one week, 3×2 g per day, fasted state, post vs pre) was 11±2.5 fold, the “increase of erythrocyte creatine concentration after supplementation” value ([4]; one week, 3×2 g per day, independent of the form ingested) was 88±22% and the “Creatinine urinary excretion, effect of creatine ingestion” value [5] was “not affected”. For the same molecule, the “excretion of methylamine and formaldehyde” value [6] was “increased excretion of methylamine and formaldehyde”.
